Experimental data published in publication PMC9050674, “Structure-based inhibitor design for reshaping bacterial morphology” (Communications Biology, 2022).
Values joined by “and” are separate entries in the source; they are usually repeats but may differ in a detail not shown here. Equal values may be shown once.

Legend:
[1] = system: C. jejuni ATCC 33560 WT; type: cell-based, Campylobacter jejuni
Description: Invasion assay was performed as described previously with modifications. Briefly, prior to bacterial infection, a monolayer of 1 × 10^5 Caco-2 cells was prepared in a 24-well tissue culture plate and incubated in DMEM with 10% FBS, and 0.6% CMC at 37 °C under 5% CO2. The cultures of wild-type C. jejuni strain with or without BMK-S301 (100 μM) and KL-L9P (1 μM) were prepared, as described above (TEM). The bacterial suspensions were diluted in DMEM with 10% FBS and 0.6% CMC, and then added onto the cell monolayer at a multiplicity of infection (MOI) of 100. After a 3 h incubation, the cells were incubated with 250 μg/mL of gentamicin in the fresh pre-warmed medium for 2 h to kill any extracellular bacteria. The wells were washed three times with 1 × PBS, and treated with 0.1% Triton X-100 in 1 × PBS for 15 min. After dilution with 1 × PBS, the suspensions were plated on MH agar to enumerate the CFU. […]

[2] = system: C. jejuni ATCC 33560 WT; test: Cell morphology change monitored by TEM; type: cell-based, Campylobacter jejuni; details: 37 °C, 24 h, KL-L9P used for improved permeability
Description: Next, we investigated whether our inhibitors could transform C. jejuni from the helical- to curved-rod morphology on exposure to the inhibitors (Fig. 5). […] To investigate the effect of inhibitors on the morphology of C. jejuni cells, we exposed the cells to the inhibitors and checked whether the morphology could be altered.
Cell-morphology change of C. jejuni upon inhibitor treatment was monitored, as described previously with modifications. Briefly, overnight cultures of C. jejuni were harvested from MH agar plates and suspended in MH broth to approximately 1 × 10^6 colony-forming unit (CFU)/mL. A total of 500 μL of the diluted bacterial culture was added into each well of a 24-well plate with 5 μL of two-fold serial dilutions of inhibitor. For the control strain with no inhibitor, the same volume of dilution buffer (20 mM Tris-HCl pH 8.0 and 200 mM NaCl) was used. The plate was incubated under a micro-aerobic condition at 37 °C for 24 h in the static condition. After incubation, 10 μL of the bacterial cultures was placed on formvar/carbon-coated copper grids (200 mesh) and negatively stained with 2% uranyl acetate for 2 s.

[3] = system: C. jejuni (ATCC 33560); test: Drug accumulation assay (LC-MS)
Description: The accumulation assay was adapted from two different methods[42],[43]. […] The culture was grown overnight at 42 °C under the micro-aerobic condition. The cells were harvested at 6000 g for 15 min and washed with 1 × PBS, followed by resuspension in pre-warmed 1 × PBS to ~10^10 CFU/mL. The cell suspension (1.2 mL) was dispensed into a 24-well plate. Each compound to be examined was added into each well (final concentration = 100 μM). […] After incubation with shaking at 37 °C for 20 min, OD600 of each sample was measured, and the cells were harvested at 6000 g for 10 min at 4 °C. The pellets were resuspended in 250 μL of water, followed by three cycles of Freeze-Thaw with a dry ice/ethanol bath and a 37 °C-heating block in order to extract the compounds from C. jejuni. The cells were pelleted at 13,000 g for 5 min at room temperature. The supernatants (220 μL) were transferred to new tubes. The pellets were resuspended in 100 μL of methanol with vigorous vortexing for 1 min, followed by pelleting as before. The supernatants (100 μL) were combined with the solutions previously collected. The residual cell debris were removed at 20,000 g for 15 min at room temperature. The supernatants (300 μL) were dried with Genevac™ miVac Centrifugal Concentrator at room temperature for 5 h. Finally, the samples were resuspended with appropriate solvents and analyzed by LC-MS.
The suspension was centrifuged and the supernatant was analyzed by LC-MS. LC-MS systems consists of a Bruker impact II ultra-high resolution Qq-time-of-flight mass spectrometer using Hystar 5.0 SR1 software with a Waters Acquity UPLC H-Class system equipped with a quaternary solvent manager, a sample manager-FTN, and a photodiode array detector. The Bruker electrospray ionization source was operated in the positive ion mode, except for BMK-S301 (in the negative ion mode). […] A four-step 10-min LC gradient was as follows: 3 min at 98:2; 3 min to 85:15; 0.1 min to 98:2; 3.9 min at 98:2 for BMK-S101, -S203, and -S301. The ratio of the mobile phases (A = 0.1% formic acid in water, B = 0.1% formic acid in ACN) is given as A:B in LC gradients. […] The quantification was done by integrating the peak areas from extracted-ion chromatograms of corresponding m/z values of each compound.

[4] = system: Caco-2 epithelial cells; test: Cytotoxicity assay (LDH release); type: cell-based; details: 3 h; for Cytotoxicity test (LDH release, Triton X-100 lysis = 100%): single replicates, source data Fig. 5c
Description: To examine the cytotoxicity of BMK-[…], the lactate dehydrogenase (LDH) activity was measured using Cytotoxicity Detection Kit^PLUS (LDH; Roche, Switzerland) according to the manufacturer's instructions. Briefly, the monolayers of Caco-2 cells were prepared in a 96 well tissue culture plate and incubated in Dulbecco's modified-eagle medium (DMEM; ATCC) with 10% fetal bovine serum (FBS; Invitrogen), and 0.6% carboxymethylcellulose (CMC) at 37 °C under 5% CO2. […] The 2% Triton X-100 was used to release all LDH of Caco-2 cell as a positive control.

Question: Which results are given for `CC(=O)N[C@@H](Cc1ccc(S(N)(=O)=O)cc1)C(=O)N[C@H](C)C(=O)NO` [BMK-S301]?
Answer: invasion ability of WT C. jejuni ([1]; 100 μM BMK-S301 and 1 μM KL-L9P, high-viscosity medium, 3 h after infection): decreased compared to that of the untreated C. jejuni; Invasion assay (intracellular bacteria, relative) ([1]; BMK-S0301 100 μM with MAP 1 μM, single replicates, source data Fig. 5d): 90.1581 and 72.6517 and 79.6542 and 66.8677 and 113.675 and 78.0123 and 88.3559 and 93.1319 and 83.5799; minimum concentration causing morphological changes (helical to curved-rod) [2]: 25 μM; accumulation fold higher than for BMK-S203 ([3]; 100 μM compound): 54 fold; accumulation fold higher than for ciprofloxacin ([3]; 100 μM compound): 8 fold; intracellular concentration (accumulation) ([3]; 100 μM compound, 37 °C, 20 min, LC-MS, mean): 16.2 ± 1.0 nmole/10^11 CFU; µM (concentration in LC-MS sample) ([3]; single replicates (First, Second, Third), total volume 200 (r6-r19) or 100 (r23-r30), source data Fig. 5b): 0.766 µM and 0.686 µM and 1.447 µM and 1.359 µM and 1.398 µM and 0.649 µM; nmol/1011 CFUs ([3]; single replicates, source data Fig. 5b): 17.92 nmol/1011 CFUs and 16.41 nmol/1011 CFUs and 16.422 nmol/1011 CFUs and 15.620 nmol/1011 CFUs and 15.458 nmol/1011 CFUs and 15.07 nmol/1011 CFUs; Total nmol ([3]; single replicates, total volume 200 or 100, source data Fig. 5b): 0.1532 nmol and 0.1372 nmol and 0.1447 nmol and 0.1359 nmol and 0.1398 nmol and 0.1298 nmol; Cytotoxicity test (LDH release, Triton X-100 lysis = 100%) ([4]; 10 μM): 0% (5×) and 4.598%; Cytotoxicity test (LDH release, Triton X-100 lysis = 100%) ([4]; 100 μM): 2.466% and 0% (5×); toxicity to Caco-2 cells ([4]; LDH release, 10 or 100 μM): not toxic
